Values of other authors as cited in US20060216726A1, “Method for optimizing thiopurine efficacy and toxicity using mass spectrometry” (Prometheus Laboratories Inc., priority 2004, published 2006).

Conditions: patients with inflammatory bowel disease, azathioprine

6-thioguanine nucleotide [6-TGN]
Therapeutic threshold associated with efficacy: > 235 pmol/8×10^8 cells
